pKi: −log10 of the molar value.
Columns and labels:
Type in all cases: biochemical
[1] = molecular target: PKC alpha kinase (Homo sapiens, UniProt P17252); assay: PKC alpha kinase inhibition, coupled-enzyme (NADH absorbance) assay, Ki; settings: 130 μM ATP, 4.5 nM PKC alpha kinase, 30° C.
Summary of the method: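 Enzyme in 100 mM HEPES pH 7.5, 10 mM MgCl2, 100 μM CaCl2, 0.01% Brij, preincubated with compound 10 min at 30 °C. Reaction started with 130 μM ATP (final); NADH consumption followed at 340 nm for 15 min at 30 °C. Ki fitted by non-linear regression of initial rates.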

[2] = molecular target: PKC theta kinase (Homo sapiens, UniProt Q04759); assay: PKC theta kinase inhibition, coupled-enzyme (NADH absorbance) assay, Ki; settings: 240 μM ATP, 18 nM PKC theta kinase, 30° C.
Chain of PKC theta kinase (Q04759 whole entry): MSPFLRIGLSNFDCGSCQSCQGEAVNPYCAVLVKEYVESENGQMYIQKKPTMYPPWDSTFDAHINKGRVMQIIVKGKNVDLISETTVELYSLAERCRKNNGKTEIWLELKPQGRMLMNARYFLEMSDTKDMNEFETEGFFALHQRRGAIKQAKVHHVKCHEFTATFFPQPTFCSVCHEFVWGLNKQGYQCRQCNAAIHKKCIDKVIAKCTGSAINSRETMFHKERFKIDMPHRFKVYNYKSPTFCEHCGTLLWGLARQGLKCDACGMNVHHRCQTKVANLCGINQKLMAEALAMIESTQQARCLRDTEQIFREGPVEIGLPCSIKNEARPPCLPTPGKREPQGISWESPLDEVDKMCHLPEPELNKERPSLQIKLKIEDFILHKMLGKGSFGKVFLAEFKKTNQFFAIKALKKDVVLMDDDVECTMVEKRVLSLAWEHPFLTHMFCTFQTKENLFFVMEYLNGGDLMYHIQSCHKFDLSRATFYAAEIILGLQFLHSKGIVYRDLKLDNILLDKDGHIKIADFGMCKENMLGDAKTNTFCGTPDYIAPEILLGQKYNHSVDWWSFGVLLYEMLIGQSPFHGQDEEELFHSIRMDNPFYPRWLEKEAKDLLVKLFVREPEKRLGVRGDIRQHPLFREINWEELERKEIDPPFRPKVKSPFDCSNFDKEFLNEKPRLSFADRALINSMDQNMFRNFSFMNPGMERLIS
Summary of the method: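 Coupled-enzyme kinase assay following NADH absorbance at 340 nm, in 100 mM HEPES pH 7.5, 10 mM MgCl2, 25 mM NaCl, 0.1 mM EDTA, 0.01% Brij. Compound in DMSO preincubated with enzyme 10 min at 30 °C. Ki from initial rates by non-linear regression.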

[3] = molecular target: PKC delta kinase (Homo sapiens, UniProt Q05655); assay: PKC delta kinase inhibition, coupled-enzyme (NADH absorbance) assay, Ki; settings: 150 μM ATP, 46 nM PKC delta kinase, 30° C.; read-out: Ki PKC delta
Chain of PKC delta kinase (Q05655 whole entry): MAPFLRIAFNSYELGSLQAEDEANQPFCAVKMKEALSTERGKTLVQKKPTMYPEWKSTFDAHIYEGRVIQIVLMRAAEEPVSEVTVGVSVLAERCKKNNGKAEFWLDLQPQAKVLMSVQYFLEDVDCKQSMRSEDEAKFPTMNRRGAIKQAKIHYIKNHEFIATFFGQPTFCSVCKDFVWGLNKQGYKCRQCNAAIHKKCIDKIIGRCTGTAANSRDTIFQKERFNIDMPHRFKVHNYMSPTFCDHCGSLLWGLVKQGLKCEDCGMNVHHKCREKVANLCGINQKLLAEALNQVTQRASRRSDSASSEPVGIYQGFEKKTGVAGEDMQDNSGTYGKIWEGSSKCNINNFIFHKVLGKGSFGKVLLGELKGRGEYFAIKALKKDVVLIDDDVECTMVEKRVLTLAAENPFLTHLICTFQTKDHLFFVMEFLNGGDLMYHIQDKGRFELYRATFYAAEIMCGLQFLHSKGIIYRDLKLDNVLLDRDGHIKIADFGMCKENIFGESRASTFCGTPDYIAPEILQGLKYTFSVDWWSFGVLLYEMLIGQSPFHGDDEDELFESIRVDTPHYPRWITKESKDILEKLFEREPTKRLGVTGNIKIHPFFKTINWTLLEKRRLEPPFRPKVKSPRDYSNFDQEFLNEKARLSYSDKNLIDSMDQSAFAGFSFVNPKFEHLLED
Summary of the method: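 PKC delta in 100 mM HEPES pH 7.5, 10 mM MgCl2, 25 mM NaCl, 0.1 mM EDTA, 0.01% Brij, equilibrated 10 min at 30° C with compound from DMSO stock. Started with ATP at 150 μM final; NADH-coupled absorbance at 340 nm followed 15 min at 30° C. Ki from initial rates by non-linear regression.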

SMILES | pKi [1] | pKi [2] | pKi [3]
CC(C)C[C@@H]1C[C@H](N)CN(c2ccc(F)c(-c3n[nH]c4ncccc34)n2)C1 [Compound 366] | < 5.90 | > 7.30 | > 5.55
CC(C)C[C@@H]1C[C@@H](N)CN(c2ccc(F)c(-c3n[nH]c4ncccc34)n2)C1 [Compound 367] | < 5.90 | > 7.30 | > 5.55
NC1CCN(c2ccc(F)c(-c3n[nH]c4ncccc34)n2)CC1 [Compound 368] | < 5.90 | > 6.30 | < 5.90
CNC1CCN(c2ccc(F)c(-c3n[nH]c4ncccc34)n2)CC1 [Compound 369] | < 5.90 | > 6.30 | < 5.90
CC(C)CC1CN(c2ccc(F)c(-c3n[nH]c4ncccc34)n2)CCC1C#N (stereo not drawn) [Compound 370] | < 5.90 | > 7.30 | > 5.55
CS(=O)(=O)NCC1CCCN(c2ccc(F)c(-c3n[nH]c4ncccc34)n2)C1 (stereo not drawn) [Compound 371] | < 5.90 | < 6.15 | < 5.90
CS(=O)(=O)NCC1CCCN(c2ccc(C(F)(F)F)c(-c3n[nH]c4ncccc34)n2)C1 (stereo not drawn) [Compound 372] | < 5.90 | < 6.15 | < 5.90
CC(C)C(C)(O)C1CN(c2nc(-c3n[nH]c4ncccc34)ccc2F)CCN1 (stereo not drawn) [Compound 374] | < 5.90 | > 7.30 | > 6.30
CC(C)C(C)(O)C1CN(c2nc(-c3n[nH]c4ncccc34)ccc2F)CCN1 (stereo not drawn) [Compound 376] | < 5.90 | > 7.30 | > 6.30
CCC(N)(CC)C1CCCN(c2ccc(F)c(-c3n[nH]c4ncccc34)n2)C1 (stereo not drawn) [Compound 377] | < 5.90 | > 6.30 | > 5.55
CCC(C)(C)C(N)C1CCCN(c2ccc(F)c(-c3n[nH]c4ncccc34)n2)C1 (stereo not drawn) [Compound 379] | < 5.90 | > 6.30 | < 5.90
CC1(C)CC1(O)C1CN(c2ccc(F)c(-c3n[nH]c4ncccc34)n2)CCN1 (stereo not drawn) [Compound 380] | < 5.90 | > 7.30 | < 5.90
CC1(C)CC1(O)C1CN(c2ccc(F)c(-c3n[nH]c4ncccc34)n2)CCN1 (stereo not drawn) [Compound 382] | < 5.90 | > 6.30 | < 5.90

Second part, the compound after the results:

pKi [1] | pKi [2] | pKi [3] | SMILES
< 5.90 | > 6.30 | > 5.55 | CC(C)(N)C1CCN(c2ccc(F)c(-c3n[nH]c4ncccc34)n2)C1 (stereo not drawn) [Compound 360]
< 5.90 | < 6.15 | < 5.90 | CC(C)(N)C1CCN(c2ccc(C(F)(F)F)c(-c3n[nH]c4ncccc34)n2)C1 (stereo not drawn) [Compound 361]
< 5.90 | > 6.30 | < 5.90 | NC[C@H]1CCN(c2ccc(F)c(-c3n[nH]c4ncccc34)n2)C1 [Compound 362]
< 5.90 | < 6.15 | < 5.90 | NCC1CN(c2ccc(C(F)(F)F)c(-c3n[nH]c4ncccc34)n2)C1 [Compound 363]
< 5.90 | > 6.30 | < 5.90 | CC(C)C[C@@H]1C[C@H](N)CN(c2ccc(C(F)(F)F)c(-c3n[nH]c4ncccc34)n2)C1 [Compound 364]
< 5.90 | > 6.30 | < 5.90 | CC(C)C[C@@H]1C[C@@H](N)CN(c2ccc(C(F)(F)F)c(-c3n[nH]c4ncccc34)n2)C1 [Compound 365]
> 6.30 | > 9.00 | > 7.30 | CC(C)C(C)(O)C1CN(c2nc(-c3n[nH]c4ncccc34)ccc2F)CCN1 (stereo not drawn) [Compound 373]
> 5.55 | > 9.00 | > 7.30 | CC(C)C(C)(O)C1CN(c2nc(-c3n[nH]c4ncccc34)ccc2F)CCN1 (stereo not drawn) [Compound 375]
> 5.55 | > 7.30 | > 6.30 | CCC(C)(C)C(N)C1CCCN(c2ccc(F)c(-c3n[nH]c4ncccc34)n2)C1 (stereo not drawn) [Compound 378]
> 6.30 | > 9.00 | > 6.30 | CC1(C)CC1(O)C1CN(c2ccc(F)c(-c3n[nH]c4ncccc34)n2)CCN1 (stereo not drawn) [Compound 381]

From patent publication US9193722B2, “Tri-cyclic pyrazolopyridine kinase inhibitors” (Vertex Pharmaceuticals Incorporated, priority 2008, dated 2015)
